For 26 compounds, EC50 results are on record in patent US8592594B2, “Tetrahydro-quinoline derivatives” (Hoffmann-La Roche Inc., priority 2010, dated 2013).

This assay relates to recombinant AMPK proteins (α1β1γ1, α2β1γ1, α1(1-335), α1(1-394) or α2(1-394)). Description: Scintillation Proximity Assay (SPA), AMPK activation. Format: biochemical, human. The settings on record: effective concentration of activator for 50% of maximal enzyme activity; 50 nM AMPK, 2 μM ATP, 2 μM biotin-SAMS, 30° C., 2 hours. On the procedure: Recombinant human AMPK α1β1γ1, α2β1γ1 or AMPK α subunit truncations α1(1-335), α1(1-394) and α2(1-394) were constructed, expressed and purified as described previously (Pang, T., Zhang, Z. S., Gu, M., Qiu, B. Y., Yu, L. F., Cao, P. R., Shao, W., Su, M. B., Li, J. Y., Nan, F. J., and Li, J. (2008). Rat liver AMPK heterotrimer enzyme was obtained from Upstate (Billerica, Mass., U.S.A.).
Scintillation Proximity Assay
Before the Scintillation Proximity Assay (SPA) assay, 200 nM recombinant AMPK proteins (α1β1γ1, α2β1γ1, α1(1-335), α1(1-394) or α2(1-394)) were fully phosphorylated as described previously (Pang et al., 2008). SPA reactions were performed in 96-well plates at a final volume of 50 μL containing 20 mM Tris-HCl pH 7.5, 5 mM MgCl2, 1 mM DTT, 2 μM biotin-SAMS, 2 μM ATP, 0.2 μCi/well [γ-^33P]ATP, and various amount of activator. Reactions were initiated by the addition of 50 nM recombinant AMPK proteins to the reaction solutions and incubated at 30° C. for 2 hours. After that, reactions were terminated by the addition of 40 μL stop solution containing 80 μg streptavidin-coated SPA beads per well, 50 mM ED TA, 0.1% Triton X-100 in PBS, pH 7.5 and incubated for 1 hour. Finally, a 160 μL suspension solution containing 2.4 M CsCl, 50 mM EDTA, and 0.1% Triton X-100 in PBS (pH 7.5) was added to the reaction solution to suspend SPA beads completely. SPA signals were determined with a Wallac MicroBeta plate counter (PerkinElmer) 30 min later for calculation of the amount of product formed. The amount of products formed in 2 hour was plotted against activator concentrations to determine the effective concentration of the activator (EC50) required for 50% of maximal enzyme activity.
A general note: In a scintillation proximity assay essentially only radioactivity close to the scintillant gives light.
As usually defined, the EC50 is the concentration needed to bring the measured effect to its halfway point. In the case of `Cc1ccc(F)cc1C1CC2(CC2)c2cc(C(=O)O)ccc2N1` (centres unmarked) [Example 1, 2-(5-Fluoro-2-methyl-phenyl)-spiro(cyclopropane-1,4′-1′,2′,3′,4′-tetrahydroquinoline)-6-carboxylic acid], the EC50 worked out at 2.07 µM.
Consider `O=C(O)c1ccc2c(c1)C1(CC1)CC(c1cc(Br)ccc1F)N2` (centres unmarked) [Example 2, 2-(5-Bromo-2-fluoro-phenyl)-spiro(cyclopropane-1,4′-1′,2′,3′,4′-tetrahydroquinoline)-6-carboxylic acid], for which the EC50 is 3.21 µM.
Under `O=C(O)c1ccc2c(c1)C1(CC1)CC(c1cc(Cl)ccc1Cl)N2` (centres unmarked) [Example 3, 2-(2,5-Dichloro-phenyl)-spiro(cyclopropane-1,4′-1′,2′,3′,4′-tetrahydroquinoline)-6-carboxylic acid] stands 6.12 µM; under `O=C(O)c1ccc2c(c1)C1(CC1)CC(c1cc(Cl)cc(Cl)c1)N2` (centres unmarked) [Example 4, 2-(3,5-Dichloro-phenyl)-spiro(cyclopropane-1,4′-1′,2′,3′,4′-tetrahydroquinoline)-6-carboxylic acid], 13.2 µM; under `O=C(O)c1ccc2c(c1)C1(CC1)CC(c1cc(Cl)ccc1F)N2` (centres unmarked) [Example 5, 2-(5-Chloro-2-fluoro-phenyl)-spiro(cyclopropane-1,4′-1′,2′,3′,4′-tetrahydroquinoline)-6-carboxylic acid], 1.24 µM.
Under `CS(=O)(=O)c1cccc(C2CC3(CC3)c3cc(C(=O)O)ccc3N2)c1` (centres unmarked) [Example 6, 2-(3-Methanesulfonyl-phenyl)-spiro(cyclopropane-1,4′-1′,2′,3′,4′-tetrahydroquinoline)-6-carboxylic acid] stands 7.41 µM; under `O=C(O)c1ccc2c(c1)C1(CC1)CC(c1cc(F)ccc1Br)N2` (centres unmarked) [Example 7, 2-(2-Bromo-5-fluoro-phenyl)-spiro(cyclopropane-1,4′-1′,2′,3′,4′-tetrahydroquinoline)-6-carboxylic acid], 2.29 µM.
Under `O=C(O)c1ccc2c(c1)C1(CC1)CC(c1cccc(F)c1)N2` (centres unmarked) [Example 8, 2-(3-Fluoro-phenyl)-spiro(cyclopropane-1,4′-1′,2′,3′,4′-tetrahydroquinoline)-6-carboxylic acid] stands 4.44 µM; under `O=C(O)c1ccc2c(c1)C1(CCCCC1)CC(c1cc(F)ccc1Br)N2` (centres unmarked) [Example 9, 2-(2-Bromo-5-fluoro-phenyl)-spiro(cyclohexane-1,4′-1′,2′,3′,4′-tetrahydroquinoline)-6-carboxylic acid], 1.68 µM.
On to `O=C(O)c1ccc2c(c1)C1(CCCC1)CC(c1cc(F)ccc1Br)N2` (centres unmarked) [Example 10, 2-(2-Bromo-5-fluoro-phenyl)-spiro(cyclopentane-1,4′-1′,2′,3′,4′-tetrahydroquinoline)-6-carboxylic acid], for which the EC50 was 3.48 µM.
Then `CS(=O)(=O)c1ccc(F)cc1C1CC2(CC2)c2cc(C(=O)O)ccc2N1` (centres unmarked) [Example 11, 2-(5-Fluoro-2-methanesulfonyl-phenyl)-spiro(cyclopropane-1,4′-1′,2′,3′,4′-tetrahydroquinoline)-6-carboxylic acid], with 4.96 µM; and `CS(=O)(=O)c1ccc(S(C)(=O)=O)c(C2CC3(CC3)c3cc(C(=O)O)ccc3N2)c1` (centres unmarked) [Example 12, 2-(2,5-Dimethanesulfonyl-phenyl)-spiro(cyclopropane-1,4′-1′,2′,3′,4′-tetrahydroquinoline)-6-carboxylic acid], with 5.92 µM; and `CN(C)C(=O)N1c2ccc(C(=O)O)cc2C2(CC2)CC1c1cc(Cl)ccc1Cl` (centres unmarked) [Example 13, 2-(2,5-Dichloro-phenyl)-1-dimethylcarbamoyl-spiro(cyclopropane-1,4′-1′,2′,3′,4′-tetrahydroquinoline)-6-carboxylic acid], with 2.63 µM.
Then `O=C(O)c1ccc2c(c1)C1(CC1)CC(c1cc(Cl)ccc1Cl)N2Cc1ccccc1` (centres unmarked) [Example 14, 1-Benzyl-2-(2,5-dichloro-phenyl)-spiro(cyclopropane-1,4′-1′,2′,3′,4′-tetrahydroquinoline)-6-carboxylic acid], with 3.76 µM; and `CC1(C)CC(c2cc(Cl)ccc2Cl)Nc2ccc(C(=O)O)cc21` (centres unmarked) [Example 15, 2-(2,5-Dichloro-phenyl)-4,4-dimethyl-1,2,3,4-tetrahydro-quinoline-6-carboxylic acid], with 7.6 µM; and `CC1(C)CC(C(C)(C)c2ccccc2)Nc2ccc(C(=O)O)cc21` (centres unmarked) [Example 16, 4,4-Dimethyl-2-(1-methyl-1-phenyl-ethyl)-1,2,3,4-tetrahydro-quinoline-6-carboxylic acid], with 8.61 µM.
Under `CC1(C)CC(c2cc(Cl)ccc2F)Nc2cc(Cl)c(C(=O)O)cc21` (centres unmarked) [Example 17, 7-Chloro-2-(5-chloro-2-fluoro-phenyl)-4,4-dimethyl-1,2,3,4-tetrahydro-quinoline-6-carboxylic acid] stands 4.54 µM.
As to `CC1(C)CC(c2cc(Cl)ccc2F)Nc2ccc(CC(=O)O)cc21` (centres unmarked) [Example 18, [2-(5-Chloro-2-fluoro-phenyl)-4,4-dimethyl-1,2,3,4-tetrahydro-quinolin-6-yl]-acetic acid], the EC50 was found to be 4.58 µM.
Consider `C=CC1(C)CC(c2ccc(F)c(Cl)c2)Nc2ccc(C(=O)O)cc21` (centres unmarked) [Example 19, 2-(3-Chloro-4-fluoro-phenyl)-4-methyl-4-vinyl-1,2,3,4-tetrahydro-quinoline-6-carboxylic acid], for which the EC50 is 2.13 µM.
`CC1(c2ccccc2)CC(c2ccc(F)c(Cl)c2)Nc2ccc(C(=O)O)cc21` (centres unmarked) [Example 20, 2-(3-Chloro-4-fluoro-phenyl)-4-methyl-4-phenyl-1,2,3,4-tetrahydro-quinoline-6-carboxylic acid]: the EC50 was determined as 3.31 µM.
For `CC1(C)CC(c2cccc(N3CCOCC3)c2)Nc2ccc(C(=O)O)cc21` (centres unmarked) [Example 22, 4,4-Dimethyl-2-(3-morpholin-4-yl-phenyl)-1,2,3,4-tetrahydro-quinoline-6-carboxylic acid], the EC50 is 5.35 µM.
Under `CC(C)N1CCN(c2cccc(C3CC(C)(C)c4cc(C(=O)O)ccc4N3)c2)CC1` (centres unmarked) [Example 23, 2-[3-(4-Isopropyl-piperazin-1-yl)-phenyl]-4,4-dimethyl-1,2,3,4-tetrahydro-quinoline-6-carboxylic acid] stands 7.02 µM.
Then `C=CC1(C)CC(c2ccc(F)c(Cl)c2)Nc2ccc(C(=O)O)nc21` (centres unmarked) [Example 25, 6-(3-Chloro-4-fluoro-phenyl)-8-methyl-8-vinyl-5,6,7,8-tetrahydro-[1,5]naphthyridine-2-carboxylic acid], with 4.83 µM; and `CCC1(C)CC(c2ccc(F)c(Cl)c2)Nc2ccc(C(=O)O)nc21` (centres unmarked) [Example 26, 6-(3-Chloro-4-fluoro-phenyl)-8-ethyl-8-methyl-5,6,7,8-tetrahydro-[1,5]naphthyridine-2-carboxylic acid], with 2.1 µM.
Consider `CCC1(C)CC(c2ccc(F)c(Cl)c2)N(CCC(C)C)c2ccc(C(=O)O)nc21` (centres unmarked) [Example 27, 6-(3-Chloro-4-fluoro-phenyl)-8-ethyl-8-methyl-5-(3-methyl-butyl)-5,6,7,8-tetrahydro-[1,5]naphthyridine-2-carboxylic acid], for which the EC50 came out at 1.49 µM.
On to `Cc1ccc(F)cc1C1CC2(CC2)c2cc(C(=O)NC3CCC3)ccc2N1` (centres unmarked) [Example 28, 2-(5-Fluoro-2-methyl-phenyl)-spiro(cyclopropane-1,4′-1′,2′,3′,4′-tetrahydroquinoline)-6-carboxylic acid cyclobutylamide], for which the EC50 turned out to be 11.4 µM.
